Here are results for 13 molecules from PubChem BioAssay (NCI).

Assay in all cases: inhibition of tumour cell growth, NCI panel, 48 h
For test [1], the system named is SNB-19 CNS.
Test [2] concerns OVCAR-3 ovarian.
In test [3] the test system is HCC-2998 colon.
Test [4] deals with A498 renal.
Test [5] has as its system NCI/ADR-RES ovarian.
For test [6], the system named is UACC-62 melanoma.
Test [7] has as its system OVCAR-4 ovarian.
The subject of test [8] is RPMI-8226 leukemia.
Test [9] has as its system SW-620 colon.
Test [10] has as its system DU-145 prostate.

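Where inhibition never reached the appropriate level, the endpoint shown equals the highest concentration tested. Otherwise, values were interpolated linearly from a five-concentration, 48-hour dose response in 96-well plates. GI50: concentration for 50% inhibition of growth. TGI denotes the concentration required for complete inhibition of growth.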

For `CN(C)c1cccc(NC2=NCCO2)c1`, the TGI in test [1], in [2], in [3], in test [4], in [5] and in [6] was > 100 µM throughout. Moreover, the TGI in test [7], in [8], in test [9] and in test [10] was > 100 µM throughout.
`CC1=NC(=Cc2ccc([N+](=O)[O-])cc2)C(=O)N1n1c(-c2ccccc2)nc2ccccc2c1=O`: the TGI in test [1] is > 100 µM; in test [3], > 100 µM; in [6] it was > 100 µM; in test [8], 53.6 µM; in test [9] it was > 100 µM; in test [10] it was > 100 µM.
With `CC(=O)c1c(C)[nH]c(-c2nc3ccc(N4CCN(C)CC4)cc3[nH]2)c1-c1ccccc1`, the GI50 in test [1] is 3.03 µM; in test [2] it was 1.11 µM; in test [3], 1.54 µM; in [4], 0.522 µM; in test [5], 2.48 µM; in [6], 0.274 µM. In addition, the GI50 in [7] was 2.55 µM; in [9], 3.82 µM; in test [10] it was 10.2 µM. Moreover, the TGI in test [1] is > 100 µM; in [2] it was 15 µM; in [3] it was 12.8 µM; in test [4] it was 4.79 µM; in [5] it was > 100 µM; in test [6], 12.7 µM. For the same molecule, the TGI in test [7] turned out to be 43.2 µM; in test [9], 24.8 µM; in [10], 47 µM.
Regarding `CN(CCCNC(=O)CCOCCOCCOCCNC(=O)Cc1ccc2ccc3cccc4ccc1c2c34)CCCNc1cc(-c2ccc3ccccc3c2)nc2ccccc12`, the GI50 in test [1] is 0.51 µM; in test [2], 0.572 µM; in [3], 0.554 µM; in test [4], 1.38 µM; in test [5], 4.22 µM; in test [6], 1.12 µM. The figures for the GI50 in test [7], in [9] and in [10] were 0.538 µM, 0.247 µM and 0.561 µM, respectively. Besides, the TGI was determined as 0.991 µM in [1]; 1.17 µM in test [2]; 1.03 µM in test [3]; 2.92 µM in test [4]; 10.6 µM in test [5]; 4.55 µM in test [6]. The TGI in test [7] was 1.18 µM; in test [9], 0.654 µM; in test [10], 1.2 µM.
Take `COC(=O)CSSCc1ccc([N+](=O)[O-])cc1`: the TGI in [1] is 77.2 µM; in test [2], 46.5 µM; in [3], 41 µM; in test [4] it was 45.7 µM; in test [5], 47.1 µM; in [6] it was 31.5 µM. In addition, the TGI in [8] is 54.8 µM; in test [9], 36.8 µM; in test [10] it was 50.7 µM.
Consider `CC(=O)O[C@H]1CC[C@@]2(C)C(=CC[C@@H]3C2CC[C@]2(C)Nc4nc5ccccc5cc4CC32)C1` (stereo not given in full), for which the TGI amounted to 7.89 µM in [1]; 8.53 µM in [2]; 10.8 µM in test [3]; 18.9 µM in [4]; 22.9 µM in [6]; 21.4 µM in [7]. Moreover, the TGI in [8] came out at 42.1 µM; in [9] it was 7.2 µM.
For the molecule `Brc1ccc2ns[s+]c2c1`, the TGI was > 100 µM in [1]; > 100 µM in test [2]; 25.8 µM in test [3]; > 100 µM in [4]; > 20.5 µM in [6]; > 100 µM in [7]. The TGI in test [8] and in test [9] was > 100 µM each time.
For `C=CCOCn1cc(C)c(=O)[nH]c1=O`, the TGI in test [1], in test [3], in test [4], in test [6], in [8] and in test [9] was > 100 µM throughout. Further, the TGI in [10] is > 100 µM.
Regarding `Nc1c(Cl)ncnc1NCCCNc1ncnc(Cl)c1N`, the TGI in test [1], in test [2], in test [3], in test [4], in [6] and in test [7] was > 100 µM each time. Also, the TGI in test [8] and in test [9] was > 100 µM each time.
Consider `COc1ccc(/C=C/C(=O)c2sc(-n3nc(-c4ccccc4)cc3-c3ccccc3)nc2C)cc1`, for which the GI50 in test [1], in test [3], in test [4], in test [6] and in test [9] was > 100 µM in each case. Besides, the TGI in test [1], in test [2], in [3], in test [4], in test [6] and in test [7] was > 100 µM throughout. The TGI in test [8] and in test [9] was > 100 µM throughout.
In the case of `CC(SC(=O)Nc1ccc(N=Nc2ccccc2)cc1)C(=O)O` (stereo not given), the TGI in test [1], in [2], in test [3], in test [4], in test [6] and in [7] was > 100 µM each time. Besides, the TGI in test [8] and in test [9] was > 100 µM each time.
Regarding `Cc1ccc(S(=O)(=O)NC(CN)C(=O)O)cc1` (stereo not given), the TGI in test [1], in [2], in test [4], in test [5], in test [6] and in [7] was > 100 µM in each case. Moreover, the TGI in test [8], in test [9] and in test [10] was > 100 µM throughout.
For `CC(=O)C1=C(O)C2C3c4c[nH]c5cccc(c45)CC3C(C)(C)N2C1=O` (stereo not given), the TGI was > 100 µM in test [1]; 74.3 µM in test [2]; 63.4 µM in test [3]; 98.2 µM in test [4]; > 100 µM in [6]; > 100 µM in [7]. In addition, the TGI in [8] and in test [9] was > 100 µM throughout.
